Patent US7179819B2, “VLA-4 inhibitor compounds” (Daiichi Pharmaceutical Co., Ltd., priority 1999, dated 2007)
Several values for one entry are separate records, joined by “and”; a condition that tells them apart may be missing. Equal values may be shown once. Where a name gives a salt, the structure may show the parent alone. One block for each molecule: values may come before it.

Legend:
[1] = Mouse bio-assay: serum concentration after oral dosing, determined by direct binding assay of diluted serum; conditions: female, Balb/c, serum, po
Description: A compound was dissolved or suspended with an appropriate solvent at 1 mg/mL. Female Balb/c mice (7–9 weeks old) were given the compound orally. Blood samples were collected from the postcaval vein of the anesthetized mice after fifteen minutes. Serum was prepared and stored at −20° C. Serum concentration of the compound was determined from inhibitory activities of the diluted serum by a direct binding assay using VLA-4-expressing cells and VCAM-IgG fusion protein. Serum concentration determined by this method correlated well with the concentration determined by LC/MS/MS methodologies.

eosinophil infiltration = experiment: Murine model of Ascaris-induced bronchial inflammation: eosinophil infiltration into bronchoalveolar lavage fluid; type: in vivo; conditions: mouse
Description: The VLA-4 inhibitors may be further characterized in in vivo assays. One such assay examines the inhibition of eosinophil infiltration into the bronchoalveolar lavage fluid in the mouse (murine) model. In this assay, the animals are treated with cyclophosphamide on day 0. On days 2 and 14, the animals are immunized intraperitoneally with Ascaris suum extract. Seven days later, the animals are treated with various doses of the VLA-4 inhibitor. Shortly after drug administration, the animals are challenged with Ascaris suum extract by instillation into the trachea. Bronchoalveolar lavage of the animal is performed by instilling saline into the lung, 48 hours later. Total cell and eosinophil counts in the lavage are determined.

in vivo = conditions: monkey, serum, intravenous, 2 mg/kg

concentration at 15 min ([1]; 10 mg/kg): 0.669 µg/mL
Molecule: C#CCN(CCOc1ccc(C(=O)O)cc1)C(=O)Cc1ccc(NC(=O)Nc2ccccc2Cl)c(OC)c1 [Compound 309, 4-[2-N-[4-[N′-(2-chlorophenyl)ureido]-3-methoxyphenyl]-N-propargylacetamido]-ethoxybenzoic acid]

concentration at 15 min ([1]; 10 mg/kg): 0.527 µg/mL
Molecule: COc1cc(CC(=O)N2[C@H](COc3ccc(C(=O)O)cc3)CC[C@@H]2c2ccccc2)ccc1NC(=O)Nc1ccccc1Cl [Compound 146, 4-[1-[4-[N′-(2-chlorophenyl)ureido]-3-methoxyphenylacetyl]-5-(R)-phenyl-2-(S)-pyrrolidinylmethoxy]benzoic acid]

concentration at 15 min ([1]; 10 mg/kg): 0.36 µg/mL
melting point: 133 to 136 °C
Molecule: COc1cc(CC(=O)N2C3CCCCC3C[C@H]2COc2ccc(C(=O)O)cc2)ccc1NC(=O)Nc1ccccc1Cl (stereo partly drawn) [Compound 166, 4-[1-[4-[N′-(2-chlorophenyl)ureido]-3-methoxyphenylacetyl]-(2S)-octahydroindolylmethoxy]benzoic acid]

concentration at 15 min ([1]; 50 mg/kg): 0.603 µg/mL
Molecule: COc1cc(CC(=O)N(CCOc2ccc(C(=O)O)cc2)CCN2CCC(F)(F)C2)ccc1NC(=O)Nc1ccccc1Br [Compound 319, 4-[2-N-[2-(3,3-difluoro-1-pyrrolidinyl)ethyl]-N-[4-[N′-(2-bromophenyl)ureido]-3-methoxyphenyl]acetamido]ethoxybenzoic acid sodium salt]

concentration at 15 min ([1]; 10 mg/kg): 0.428 µg/mL
melting point: 115 to 120 °C
Molecule: COc1cc(CC(=O)N2C3CCCCC3C[C@H]2COC2CCC(C(=O)O)CC2)ccc1NC(=O)Nc1ccccc1Br (stereo partly drawn) [Compound 179, cis-4-[-1-[4-[N′-(2-bromophenyl)ureido]-3-methoxylphenylacetyl]-(2S)-octahydroindolylmethoxy]cyclohexanecarboxylic acid]

concentration at 15 min ([1]; 50 mg/kg): 1.42 µg/mL
Molecule: C=CCN(CC=C)CCN(CCOc1ccc(C(=O)O)cc1)C(=O)Cc1ccc(NC(=O)Nc2ccccc2Cl)c(OC)c1 [Compound 323, 4-[2-N-(N′, N′-diallyl)ethyl-N-[4-[N′-(2-chlorophenyl)ureido]-3-methoxyphenylacetamido]ethoxy]benzoic acid sodium salt]

concentration at 30 min ([1]; 50 mg/kg): 2.1 µg/mL
Molecule: COc1cc(CC(=O)N(CCOc2ccc(C(=O)OC(C)C)cc2)CCN2CCOCC2)ccc1NC(=O)Nc1ccccc1C [Compound 318, isopropyl 4-[2-N-[2-(4-morpholinyl)ethyl]-N-[3-methoxy-4-[N′-(2-methylphenyl)ureido]phenyl]acetamido]ethoxybenzoate]

concentration at 30 min ([1]; 50 mg/kg): 2.31 µg/mL
Molecule: COC(=O)c1ccc(OCCN(CCN2CCOCC2)C(=O)Cc2ccc(NC(=O)Nc3ccccc3C)c(OC)c2)cc1 [Compound 314, methyl 4-[2-N-[2-(4-morpholinyl)ethyl]-N-[3-methoxy-4-[N′-(2-methylphenyl)ureido]phenyl]-acetamido]ethoxybenzoate]
% Inhibition of Eosinophil Infiltration (eosinophil infiltration; 50 mg/kg t.i.d. × 2 days, p.o.): 18.9%

concentration at 15 min ([1]; 10 mg/kg): 0.224 µg/mL
Molecule: COc1cc(CC(=O)N2C[C@@H](OC)C[C@H]2COc2ccc(C(=O)O)cc2)ccc1NC(=O)Nc1ccccc1Br [Compound 134, 4-[(2S,4S)-1-[4-[N′-(2-bromophenyl)ureido]-3-methoxyphenylacetyl]-4-methoxy-2-pyrrolidinyl]methoxybenzoic acid]

melting point: 195 to 200 °C
Molecule: COc1cc(CC(=O)N(C)CCOc2ccc(C(=O)O)cc2NC(C)C)ccc1NC(=O)Nc1ccccc1F [Compound 279, 3-isopropylamino-4-[[2-[3-methoxy-4-[N′-(2-fluorophenyl)ureido]phenylacetyl]methylamino]ethoxy]benzoic acid]

melting point: 188 to 191 °C
Molecule: COc1cc(CC(=O)N[C@@H](C)COc2ccc(C(=O)O)cc2Cl)ccc1NC(=O)Nc1ccccc1F [Compound 281, (S)-3-chloro-4-[2-[3-methoxy-4-[N′-(2-fluorophenyl)ureido]phenylacetylamino]-1-propoxy]benzoic acid]

Second part, the molecule before the results:

Molecule: Cc1ccccc1NC(=O)Nc1cc(F)c(CC(=O)N2C[C@@H](F)C[C@H]2COc2ccc(C(=O)O)cc2)cc1F [Compound 98, 4-[1-[4-[N′-(2-methylphenyl)ureido]-2,5-difluorophenylacetyl]-(4S)-fluoro-(2S)-pyrrolidinylmethoxy]benzoic acid]
concentration at 15 min ([1]; 10 mg/kg): 2.8 µg/mL

Molecule: Cc1ccccc1NC(=O)Nc1ccc(CC(=O)N2C[C@@H](F)C[C@H]2COc2ccc(C(=O)O)cc2)c(F)c1F [Compound 97, 4-[1-[4-[N′-(2-methylphenyl)ureido]-2,3 difluorophenylacetyl]-(4S)-fluoro-(2S)-pyrrolidinylmethoxy]benzoic acid]
concentration at 15 min ([1]; 10 mg/kg): 1.73 µg/mL

Molecule: Cc1ccccc1NC(=O)Nc1ccc(CC(=O)N2C[C@@H](F)C[C@H]2COc2ccc(C(=O)O)cc2)cc1C [Compound 78, 4-[(4S)-fluoro-1-[3-methyl-4-[N′-(2-methylphenyl)ureido]phenylacetyl]-(2S)-pyrrolidinyl]methoxybenzoic acid]
concentration at 15 min ([1]; 10 mg/kg): 0.368 µg/mL

Molecule: C=CCN(CCOc1ccc(C(=O)O)cc1)C(=O)Cc1ccc(NC(=O)Nc2ccccc2Br)c(OC)c1 [Compound 311, 4-[2-N-allyl-N-[4-[N′(2-bromophenyl)ureido]-3-methoxyphenyl]acetamido]ethoxybenzoic acid]
% Inhibition of Eosinophil Infiltration (eosinophil infiltration; 50 mg/kg t.i.d. × 2 days, p.o.): 42.5%
% Inhibition of Eosinophil Infiltration (eosinophil infiltration; 50 mg/kg t.i.d. × 2 days, s.c., 50 mg/kg): 80.2% and 49.3%

Molecule: COc1cc(CC(=O)N2C[C@@H](Oc3ccc4ccccc4c3)C[C@H]2COc2ccc(C(=O)O)cc2)ccc1NC(=O)Nc1ccccc1Cl [Compound 124, 4-[(2S,4S)-1-[4-[N′-(2-chlorophenyl)ureido]-3-methoxyphenylacetyl]-4-(2-naphtyloxy)-2-pyrrolidinyl]methoxybenzoic acid]
concentration at 15 min ([1]; 10 mg/kg): 0.841 µg/mL

Molecule: COc1cc(CC(=O)N2CCC[C@H]2COc2ccc(C(=O)O)cc2)ccc1NC(=O)Nc1ccccc1Cl [Compound 58, 4-[1-[4-[N′-(2-chlorophenyl)ureido]-3-methoxylphenylacetyl]-(2S)-pyrrolindinyl]methoxybenzoic acid]
concentration at 30 min ([1]; 50 mg/kg): 3.61 µg/mL

Molecule: COc1cc(CC(=O)N2C[C@@H](Cl)C[C@H]2COc2ccc(C(=O)O)cc2)ccc1NC(=O)Nc1ccccc1Cl [Compound 102, 4-[(4S)-chloro-1-[3-methoxy-4-[N′-(2-chlorophenyl)ureido]phenylacetyl]-(2S)-pyrrolidinyl]methoxybenzoic acid]
concentration at 15 min ([1]; 10 mg/kg): 0.503 µg/mL
melting point: 126 to 131 °C

Molecule: CC(C)NCC(O)COc1ccc(CC(N)=O)cc1 (centres unmarked) [ATENOLOL, reference compound]
concentration at 5 min (in vivo): 4.06 µg/mL
concentration at 30 min (in vivo): 1.19 µg/mL
concentration at 1 hr (in vivo): 0.771 µg/mL
concentration at 2 hr (in vivo): 0.479 µg/mL
concentration at 4 hr (in vivo): 0.348 µg/mL
concentration at 8 hr (in vivo): 0.137 µg/mL

Molecule: COc1cc(C(=O)O)ccc1C#CC1CCCN1C(=O)Cc1ccc(NC(=O)Nc2ccccc2C)c(OC)c1 (centres unmarked) [Compound 36, 3-methoxy4-[2-[1-[3-methoxy4-[N′-(2-methylphenyl)ureido]phenylacetyl]-2-pyrrolidinyl]ethynyl]benzoic acid]
inhibition of eosinophil infiltration (eosinophil infiltration; oral dosage of 30 mg/kg): 49%
melting point: 141 to 145 °C

Molecule: 4-(N′-2-methylphenylurea)phenylacetyl-LDVP-OH [reference compound]
% Inhibition of Eosinophil Infiltration (eosinophil infiltration; oral dosage of 50 mg/kg): −2%
